# According to PubChem BioAssay AID248 (DTP/NCI, 2004):
# “And” between values parts separate entries of the source, which are not always exact repeats. Equal entries are not always repeated. Inconclusive results and toxic doses are left out.
# Tested on: L1210 leukemia ip in BDF1 mice, survival T/C
# Assay: NCI In Vivo Anticancer Drug Screen. Data for tumor model L1210 Leukemia (intraperitoneal) in B6D2F1 (BDF1) mice
# Settings: endpoint: mean survival time, higher = longer survival
# Method in brief: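 Antitumor effect is assessed in tumor-bearing animals. Survival in the compound arm is compared with a vehicle-dosed control arm and expressed as their quotient.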
structure (smiles),measurement,setting,value
O=C1CN=C(c2ccc[nH]2)c2cc(Cl)ccc2N1,T/C,"dose: 1.56 mg/kg/injection, schedule: Q03HX008 (oral), vehicle: saline with Tween-80",98 % of control
same,T/C,"dose: 1.56 mg/kg/injection, schedule: Q03HX016 (oral), vehicle: saline with Tween-80",103 % of control
same,T/C,"dose: 1.56 mg/kg/injection, schedule: Q03HX024 (oral), vehicle: saline with Tween-80",98 % of control
same,T/C,"dose: 3.12 mg/kg/injection, schedule: Q03HX008 (oral), vehicle: saline with Tween-80",97 % of control
same,T/C,"dose: 3.12 mg/kg/injection, schedule: Q03HX016 (oral), vehicle: saline with Tween-80",102 % of control
same,T/C,"dose: 3.12 mg/kg/injection, schedule: Q03HX024 (oral), vehicle: saline with Tween-80",100 % of control
same,T/C,"dose: 6.25 mg/kg/injection, schedule: Q03HX008 (oral), vehicle: saline with Tween-80",98 % of control
same,T/C,"dose: 6.25 mg/kg/injection, schedule: Q03HX016 (ip), vehicle: other",105 % of control
same,T/C,"dose: 6.25 mg/kg/injection, schedule: Q03HX016 (oral), vehicle: saline with Tween-80",98 % of control
same,T/C,"dose: 6.25 mg/kg/injection, schedule: Q03HX024 (ip), vehicle: other",114 % of control
same,T/C,"dose: 6.25 mg/kg/injection, schedule: Q03HX024 (oral), vehicle: saline with Tween-80",97 % of control
same,T/C,"dose: 7.13 mg/kg/injection, schedule: Q01DX009 (ip), vehicle: clinical formulation",102 % of control
same,T/C,"dose: 12.5 mg/kg/injection, schedule: Q03HX008 (oral), vehicle: saline with Tween-80",102 % of control
same,T/C,"dose: 12.5 mg/kg/injection, schedule: Q03HX016 (ip), vehicle: other",104 % of control
same,T/C,"dose: 12.5 mg/kg/injection, schedule: Q03HX016 (oral), vehicle: saline with Tween-80",97 % of control
same,T/C,"dose: 12.5 mg/kg/injection, schedule: Q03HX024 (ip), vehicle: other",114 % of control
same,T/C,"dose: 12.5 mg/kg/injection, schedule: Q03HX024 (oral), vehicle: saline with Tween-80",101 % of control
same,T/C,"dose: 14.2 mg/kg/injection, schedule: Q01DX009 (ip), vehicle: clinical formulation",103 % of control
same,T/C,"dose: 25.0 mg/kg/injection, schedule: Q01DX006 (iv), vehicle: other",100 % of control
same,T/C,"dose: 25.0 mg/kg/injection, schedule: Q03HX008 (oral), vehicle: saline with Tween-80",100 % of control and 101 % of control
same,T/C,"dose: 25.0 mg/kg/injection, schedule: Q03HX016 (ip), vehicle: other",112 % of control
same,T/C,"dose: 25.0 mg/kg/injection, schedule: Q03HX016 (oral), vehicle: saline with Tween-80",95 % of control and 103 % of control
same,T/C,"dose: 25.0 mg/kg/injection, schedule: Q03HX024 (oral), vehicle: saline with Tween-80",95 % of control and 98 % of control
same,T/C,"dose: 33.0 mg/kg/injection, schedule: Q01DX015 (ip), vehicle: other",123 % of control
same,T/C,"dose: 33.0 mg/kg/injection, schedule: Q01DX Z (ip), vehicle: carboxymethylcellulose (CMC)",120 % of control
same,T/C,"dose: 34.0 mg/kg/injection, schedule: Q01DX009 (ip), vehicle: other",105 % of control
same,T/C,"dose: 50.0 mg/kg/injection, schedule: Q01DX001 (iv), vehicle: other",101 % of control
same,T/C,"dose: 50.0 mg/kg/injection, schedule: Q01DX006 (iv), vehicle: other",102 % of control
same,T/C,"dose: 50.0 mg/kg/injection, schedule: Q01DX009 (ip), vehicle: Klucel (hydroxypropylcellulose) (HPC)",103 % of control
same,T/C,"dose: 50.0 mg/kg/injection, schedule: Q01DX009 (ip), vehicle: water",118 % of control
same,T/C,"dose: 50.0 mg/kg/injection, schedule: Q01DX015 (ip), vehicle: other",121 % of control
same,T/C,"dose: 50.0 mg/kg/injection, schedule: Q01DX Z (ip), vehicle: carboxymethylcellulose (CMC)",155 % of control
same,T/C,"dose: 50.0 mg/kg/injection, schedule: Q03HX008 (oral), vehicle: saline with Tween-80",108 % of control
same,T/C,"dose: 50.0 mg/kg/injection, schedule: Q03HX016 (ip), vehicle: other",122 % of control
same,T/C,"dose: 50.0 mg/kg/injection, schedule: Q03HX016 (oral), vehicle: saline with Tween-80",112 % of control
same,T/C,"dose: 50.0 mg/kg/injection, schedule: Q03HX024 (ip), vehicle: other",150 % of control
same,T/C,"dose: 50.0 mg/kg/injection, schedule: Q03HX024 (oral), vehicle: saline with Tween-80",110 % of control
same,T/C,"dose: 50.0 mg/kg/injection, schedule: Q04DX003 (ip), vehicle: other",108 % of control
same,T/C,"dose: 50.0 mg/kg/injection, schedule: Q08DX002 (ip), vehicle: other",96 % of control
same,T/C,"dose: 52.0 mg/kg/injection, schedule: Q01DX009 (ip), vehicle: other",98 % of control
same,T/C,"dose: 75.0 mg/kg/injection, schedule: Q01DX Z (ip), vehicle: carboxymethylcellulose (CMC)",174 % of control
same,T/C,"dose: 80.0 mg/kg/injection, schedule: Q01DX009 (ip), vehicle: other",108 % of control
same,T/C,"dose: 100.0 mg/kg/injection, schedule: Q01DX001 (ip), vehicle: other",98 % of control
same,T/C,"dose: 100.0 mg/kg/injection, schedule: Q01DX001 (iv), vehicle: other",101 % of control
same,T/C,"dose: 100.0 mg/kg/injection, schedule: Q01DX001 (oral), vehicle: saline with Tween-80",102 % of control
same,T/C,"dose: 100.0 mg/kg/injection, schedule: Q01DX006 (iv), vehicle: other",110 % of control
same,T/C,"dose: 100.0 mg/kg/injection, schedule: Q01DX009 (ip), vehicle: Klucel (hydroxypropylcellulose) (HPC)",105 % of control
same,T/C,"dose: 100.0 mg/kg/injection, schedule: Q01DX009 (oral), vehicle: saline with Tween-80",114 % of control
